{
  "source": "patent US20240279202A1",
  "about": "(NURIX THERAPEUTICS, INC., priority 2021, published 2024)",
  "note": "Where a name gives a salt, the structure may show the parent alone.",
  "data": [
    {"biological_target": "T1, ITK (Mus musculus, UniProt Q03526)", "T1 construct": "mice were sacrificed and splenocytes were isolated and used to prepare protein lysates; from tissue; host or cells: mouse splenocytes (spleen) after oral dosing", "T1 sequence (Q03526 1-625)": "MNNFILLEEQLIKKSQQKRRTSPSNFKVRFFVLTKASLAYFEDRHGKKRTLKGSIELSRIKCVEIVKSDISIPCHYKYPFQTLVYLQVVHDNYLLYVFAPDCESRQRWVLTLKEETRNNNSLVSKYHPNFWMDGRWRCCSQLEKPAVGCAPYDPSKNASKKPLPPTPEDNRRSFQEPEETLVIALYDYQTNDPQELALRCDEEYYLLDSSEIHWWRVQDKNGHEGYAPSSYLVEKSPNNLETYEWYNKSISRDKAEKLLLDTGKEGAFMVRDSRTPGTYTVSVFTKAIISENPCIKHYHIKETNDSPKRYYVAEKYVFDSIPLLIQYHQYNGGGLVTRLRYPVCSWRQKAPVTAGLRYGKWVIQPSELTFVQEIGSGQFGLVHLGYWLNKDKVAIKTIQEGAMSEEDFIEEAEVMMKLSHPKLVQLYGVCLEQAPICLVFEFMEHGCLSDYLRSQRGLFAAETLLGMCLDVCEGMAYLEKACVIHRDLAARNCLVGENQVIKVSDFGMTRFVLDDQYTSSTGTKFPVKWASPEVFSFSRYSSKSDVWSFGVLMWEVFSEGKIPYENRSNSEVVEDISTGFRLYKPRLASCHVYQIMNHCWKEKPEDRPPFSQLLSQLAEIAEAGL", "assay": "Mouse PD assay for ITK degradation (Western blot, splenocytes after oral administration)", "format": "in vivo", "conditions": "mice, oral, splenocytes, Western blot, 6 hours", "procedure": "(§1) Compounds 1, 3, 7, and 42 were formulated and administered at 90 mg/kg to mice by oral gavage (PO). Blood was collected at defined time points (after 1, 2, and 6 hours) after compounds administration to determine PK parameters. Concentration increased through 6 hours. Six hours later mice were sacrificed and splenocytes were isolated and used to prepare protein lysates. Total protein levels were determined in the lysates using the BCA assay according to standard methods. Equal amounts of protein were then analyzed by Western blot to determine the level of ITK expression in each sample. ITK band intensities were measured using Alpha View software and the percent of ITK remaining in each test animal was determined relative to the mean of ITK levels in vehicle control samples.\n(§2) After 6 hours, splenocytes cells were harvested. ITK was evaluated by Western blotting.\n(§3) Compounds 43, 4, 5, 10, 11, 12, 44, 14, 3, and 13 were administered to mice orally. After 6 hours, splenocytes cells were harvested. ITK was evaluated by Western blotting. Media was removed and cell pellets were lysed in 100 uL lysis buffer (RIPA buffer (Fisher, PI89901), cOmplete Mini EDTA-free protease inhibitor (Sigma 11836170001), Protease Inhibitor Cocktail (Sigma, P2714), Phosphatase Inhibitor Cocktail 2 and 3 (Sigma, P5726 and P0044), Benzonase (Sigma, E1014)). Cells were lysed overnight at −20° C. Following thaw, cells were centrifuged for 10 min at 13000 rpm, then transferred to new tube. Protein levels were determined by BCA Assay performed according to manufacturer's protocol (EMID Millipore, cat. no. 71285-3). Samples were combined with (4×) LDS Sample Buffer and (10×) Reducing Agent and H2O to equally load 20 ug protein per lane of a 26-well NuPAGE 4-12% Bis-Tris protein gel (1.0 mm, Thermo cat. no. NP0326). Samples were separated by running gels at constant 150 V in NuPAGE MES SDS Running Buffer. Following electrophoresis, proteins were transferred to nitrocellulose membranes using an iBlot Gel Transfer Device and iBlot Gel Transfer Stacks (Thermo cat. no. IB21001 and IB301001) and transfer method P3 (20V for 7 min). Membranes were blocked for 1 hr in 5% milk solution (TBS (0.2% Tween-20)). Following blocking, membranes were incubated with primary antibody (1:1000 CST ITK (2F12) #2380) overnight at 4° C. with gentle shaking. Blots were washed 2× in TBS (0.2% Tween-20), 30 min per wash. Following washes, blots were incubated in secondary HRP-conjugated antibody (Promega anti-Mouse IgG (H+L) HRP cat. no. W4021), 1:5000 in 5% milk solution (TBS (0.2% Tween-20)), for 1 hr at room temperature with gentle shaking. Blots were washed 2× in TBS (0.2% Tween-20), 30 min per wash. Blots were incubated with 1:1 mix of ECL reagents 1 & 2 (Amersham ECL Western Blotting Detection Reagent, cat. no. RPN2106) for 2 min at room temperature. Bands were visualized using a Protein Simple imager. Blots were then re-probed with a combination of anti-actin antibody (Sigma Monoclonal Mouse Anti-3-Actin (clone AC-15), cat. no. A5441) and secondary H1RP-conjugated antibody (Promega anti-Mouse IgG (H+L) HRP, cat. no. W4021) and similar steps were taken for incubation, wash, detection and visualization steps as above. The data was analyzed using Alpha View software. The densitometric reading for each sample band was normalized to that of the corresponding actin band per lane. Approximate % ITK remaining per sample was calculated as follows: […]\n(§4) Once % ITK remaining has been calculated for each sample, groups are averaged together to show an means % ITK normalized to actin and relative to control.\n(§5) Compounds 16, 17, and 18 were administered to mice orally. After 6 hours or 24 hours, splenocytes cells were harvested. ITK was evaluated by Western blotting. Plasma concentrations were determined by LC/MS/MS. Plasma samples were protein precipitated by addition of 100 μl of acetonitrile containing 50 ng/ml of internal standard. The resulting mixture was vortexed and centrifuged at 4000 RPM for 5 minutes. […]", "values": [
      {"smiles": "C[C@@]12Cc3[nH]nc(C(=O)Nc4cnn(CC5CN(C[C@H]6CCN(c7ccc8c(c7)C(=O)N(C7CCC(=O)NC7=O)C8=O)C6)C5)c4)c3C[C@@H]1C2(F)F", "note": "(stereo partly drawn) [Compound 44, (4aS,5aR)-N-(1-((1-(((3R)-1-(2-(2,6-dioxopiperidin-3-yl)-1,3-dioxoisoindolin-5-yl)pyrrolidin-3-yl)methyl)azetidin-3-yl)methyl)-1H-pyrazol-4-yl)-5,5-difluoro-5a-methyl-1,4,4a,5,5a,6-hexahydrocyclopropa[f]indazole-3-carboxamide]", "ITK degradation in vivo at 6 hours (FIG. 3A, FIG. 4A)": "degraded ITK in vivo"}
    ]},
    {"biological_target": "T1, ITK", "assay": "Mouse PD assay for ITK degradation (Western blot, splenocytes after oral administration)", "format": "in vivo", "conditions": "percent ITK remaining in mouse splenocytes relative to vehicle, 90 mpk PO, 6 h", "procedure": "as §1, §2, §3, §4, §5", "units": {"ITK (%) 90 mpk PO, 6 h": "%"}, "values": [
      {"smiles": "C[C@@H](C(=O)N(C)c1ccc2cc(-c3n[nH]c4c3C[C@@H]3C(F)(F)[C@]3(C)C4)[nH]c2c1)N1CCN(CC2CCN(c3cccc4c3n(C)c(=O)n4C3CCC(=O)NC3=O)CC2)CC1", "note": "(stereo partly drawn) [Compound 65, (2S)—N-(2-((4aS,5aR)-5,5-difluoro-5a-methyl-1,4,4a,5,5a,6-hexahydrocyclopropa[f]indazol-3-yl)-1H-indol-6-yl)-2-(4-((1-(1-(2,6-dioxopiperidin-3-yl)-3-methyl-2-oxo-2,3-dihydro-1H-benzo[d]imidazol-4-yl)piperidin-4-yl)methyl)piperazin-1-yl)-N-methylpropanamide]", "ITK (%) 90 mpk PO, 6 h": 58},
      {"smiles": "CN(C(=O)CC1CCN(CC2CCN(c3ccc(C4CCC(=O)NC4=O)cn3)CC2)CC1)c1ccc2cc(-c3n[nH]c4c3C[C@@H]3C(F)(F)[C@]3(C)C4)[nH]c2c1", "note": "(stereo partly drawn) [Compound 73, N-(2-((4aS,5aR)-5,5-difluoro-5a-methyl-1,4,4a,5,5a,6-hexahydrocyclopropa[f]indazol-3-yl)-1H-indol-6-yl)-2-(1-((1-(5-(2,6-dioxopiperidin-3-yl)pyridin-2-yl)piperidin-4-yl)methyl)piperidin-4-yl)-N-methylacetamide]", "ITK (%) 90 mpk PO, 6 h": 92},
      {"smiles": "Cn1c(=O)n([C@H]2CCC(=O)NC2=O)c2cccc(N3CCC(CN4CCN(C(=O)c5ccc6cc(-c7n[nH]c8c7CCC(C)(C)C8)[nH]c6c5)CC4)CC3)c21", "note": "[Compound 46, (S)-3-(4-(4-((4-(2-(6,6-dimethyl-4,5,6,7-tetrahydro-1H-indazol-3-yl)-1H-indole-6-carbonyl)piperazin-1-yl)methyl)piperidin-1-yl)-3-methyl-2-oxo-2,3-dihydro-1H-benzo[d]imidazol-1-yl)piperidine-2,6-dione]", "ITK (%) 90 mpk PO, 6 h": 102},
      {"smiles": "C[C@@H](C(=O)N(C)c1ccc2cc(-c3n[nH]c4c3CCC(C)(C)C4)[nH]c2c1)N1CCN(C[C@H]2CCN(c3ccc4c(c3)C(=O)N(C3CCC(=O)NC3=O)C4=O)C2)CC1", "note": "(stereo partly drawn) [Compound 33, (2S)—N-(2-(6,6-dimethyl-4,5,6,7-tetrahydro-1H-indazol-3-yl)-1H-indol-6-yl)-2-(4-(((3R)-1-(2-(2,6-dioxopiperidin-3-yl)-1,3-dioxoisoindolin-5-yl)pyrrolidin-3-yl)methyl)piperazin-1-yl)-N-methylpropanamide]", "ITK (%) 90 mpk PO, 6 h": 67},
      {"smiles": "C[C@@H](C(=O)N(C)c1ccc2cc(-c3n[nH]c4c3CCC(C)(C)C4)[nH]c2c1)N1CCN(CC2CCN(c3ccc4c(c3)n(C)c(=O)n4C3CCC(=O)NC3=O)CC2)CC1", "note": "(stereo partly drawn) [Compound 6, (2S)—N-(2-(6,6-dimethyl-4,5,6,7-tetrahydro-1H-indazol-3-yl)-1H-indol-6-yl)-2-(4-((1-(1-(2,6-dioxopiperidin-3-yl)-3-methyl-2-oxo-2,3-dihydro-1H-benzo[d]imidazol-5-yl)piperidin-4-yl)methyl)piperazin-1-yl)-N-methylpropanamide]", "ITK (%) 90 mpk PO, 6 h": 105},
      {"smiles": "CN(C(=O)CN1CCC2(CC1)CCN(c1ccc3c(c1)C(=O)N(C1CCC(=O)NC1=O)C3=O)C2)c1ccc2cc(-c3n[nH]c4c3C[C@@H]3C(F)(F)[C@]3(C)C4)[nH]c2c1", "note": "(stereo partly drawn) [Compound 72, N-(2-((4aS,5aR)-5,5-difluoro-5a-methyl-1,4,4a,5,5a,6-hexahydrocyclopropa[f]indazol-3-yl)-1H-indol-6-yl)-2-(2-(2-(2,6-dioxopiperidin-3-yl)-1,3-dioxoisoindolin-5-yl)-2,8-diazaspiro[4.5]decan-8-yl)-N-methylacetamide]", "ITK (%) 90 mpk PO, 6 h": 116},
      {"smiles": "CC1(C)CCc2c(-c3cc4ccc(C(=O)N5CCN(CC6CCN(c7ccc(C8CCC(=O)NC8=O)cn7)CC6)CC5)cc4[nH]3)n[nH]c2C1", "note": "(stereo not shown) [Compound 47, 3-(6-(4-((4-(2-(6,6-dimethyl-4,5,6,7-tetrahydro-1H-indazol-3-yl)-1H-indole-6-carbonyl)piperazin-1-yl)methyl)piperidin-1-yl)pyridin-3-yl)piperidine-2,6-dione]", "ITK (%) 90 mpk PO, 6 h": 11},
      {"smiles": "C[C@@]12Cc3[nH]nc(-c4cc5ccc(N6CCC7(CCN(Cc8ccc9c(c8)C(=O)N(C8CCC(=O)NC8=O)C9=O)CC7)C6=O)cc5[nH]4)c3C[C@@H]1C2(F)F", "note": "(stereo partly drawn) [Compound 15, 5-((2-(2-((4aS,5aR)-5,5-difluoro-5a-methyl-1,4,4a,5,5a,6-hexahydrocyclopropa[f]indazol-3-yl)-1H-indol-6-yl)-1-oxo-2,8-diazaspiro[4.5]decan-8-yl)methyl)-2-(2,6-dioxopiperidin-3-yl)isoindoline-1,3-dione hydrochloride]", "ITK (%) 90 mpk PO, 6 h": 18.3},
      {"smiles": "CN(C(=O)CCN1CCN(c2ccc3c(c2)C(=O)N(C2CCC(=O)NC2=O)C3=O)CC1)c1ccc2cc(-c3n[nH]c4c3CCC(C)(C)C4)[nH]c2c1", "note": "(stereo not shown) [Compound 2, N-(2-(6,6-dimethyl-4,5,6,7-tetrahydro-1H-indazol-3-yl)-1H-indol-6-yl)-3-(4-(2-(2,6-dioxopiperidin-3-yl)-1,3-dioxoisoindolin-5-yl)piperazin-1-yl)-N-methylpropanamide]", "ITK (%) 90 mpk PO, 6 h": 49.3},
      {"smiles": "C[C@@]12Cc3[nH]nc(C(=O)Nc4cnn(CC5CN(C[C@H]6CCN(c7ccc8c(c7)C(=O)N(C7CCC(=O)NC7=O)C8=O)C6)C5)c4)c3C[C@@H]1C2(F)F", "note": "(stereo partly drawn) [Compound 44, (4aS,5aR)-N-(1-((1-(((3R)-1-(2-(2,6-dioxopiperidin-3-yl)-1,3-dioxoisoindolin-5-yl)pyrrolidin-3-yl)methyl)azetidin-3-yl)methyl)-1H-pyrazol-4-yl)-5,5-difluoro-5a-methyl-1,4,4a,5,5a,6-hexahydrocyclopropa[f]indazole-3-carboxamide]", "ITK (%) 90 mpk PO, 6 h": 75},
      {"smiles": "CN(C(=O)CCC1CCN(c2ccc(C3CCC(=O)NC3=O)cn2)CC1)c1ccc2cc(-c3n[nH]c4c3C[C@@H]3C(F)(F)[C@]3(C)C4)[nH]c2c1", "note": "(stereo partly drawn) [Compound 21, N-(2-((4aS,5aR)-5,5-difluoro-5a-methyl-1,4,4a,5,5a,6-hexahydrocyclopropa[f]indazol-3-yl)-1H-indol-6-yl)-3-(1-(5-(2,6-dioxopiperidin-3-yl)pyridin-2-yl)piperidin-4-yl)-N-methylpropanamide]", "ITK (%) 90 mpk PO, 6 h": 76},
      {"smiles": "C[C@@]12Cc3[nH]nc(C(=O)Nc4cnn(CC5CN(C(=O)C6CCN(c7ccc(C8CCC(=O)NC8=O)cn7)CC6)C5)c4)c3C[C@@H]1C2(F)F", "note": "(stereo partly drawn) [Compound 50, (4aS,5aR)-N-(1-((1-(1-(5-(2,6-dioxopiperidin-3-yl)pyridin-2-yl)piperidine-4-carbonyl)azetidin-3-yl)methyl)-1H-pyrazol-4-yl)-5,5-difluoro-5a-methyl-1,4,4a,5,5a,6-hexahydrocyclopropa[f]indazole-3-carboxamide]", "ITK (%) 90 mpk PO, 6 h": 113}
    ]}
  ]
}
